These results are taken from US5843955A, “Compound LK6-A” (Kyowa Hakko Kogyo Co., Ltd., priority 1995, dated 1998).

Data set [1] relates to L1210 cell. To be noted: Tetrahedron Letters, 31, 3271 (1990); cited from earlier work.
Data set [2] deals with Nippostrongylus brasiliensis. The following applies: U.S. Pat. No. 4,959,370; J. Am. Chem. Soc., 112, 1 (1990); cited from earlier work.
Data set [3] has as its system T cells. The data set is described as follows: Growth inhibition against T cells in murine mixed lymphocyte reaction. It counts as cell-based. To be noted: Mus musculus, T-cell; 72 hours at 37° C., [^3 H]Thymidine incorporation (added 18 hours before end); read-out: 50% inhibitory concentration (IC50) against the growth of T cells in murine mixed lymphocyte reaction. On the procedure:
Growth inhibition against T cells in murine mixed lymphocyte reaction
Lymph node was aseptically excised from a B10.BR mouse (Japan SLC Inc.) with a solution comprising Hanks' […] salt solution (HBSS, Gibco) and 2.5% fetal calf serum (FCS, Gibco) (hereinafter referred to as HBSS-FCS) and resuspended into a culture medium (RPMI 1640, Nissui) containing 10% fetal calf serum (FCS, Gibco), 1% 200 mM L-Gultamine (Gibco), 1% Penicillin-Streptoymycin liquid (Gibco), 5% NCTC-109 (Gibco), 1% 1M HEPES (Gibco), 7.5% NaHCO3 (SIGMA) and 0.1% 50 mM 2-mercaptoethanol (Nakarai) (hereinafter referred to as RPMI 1640-FCS) to prepared a single cell suspension to give a density of 3×10^6 cells/ml. […]
[^3 H]Thymidine was added to the wells in an amount of 1.0 μCi/well 18 hours before the end of each incubation. […] A toluene scintillator was added to the cells, and the amount of [^3 H]Thymidine radioactivity incorporated into the cells was determined using a liquid scintillation counter. The T cell growth inhibition rate was calculated according to the following equation. […]
C: Amount of [^3 H]Thymidine radioactivity incorporated into the mixed cell suspension
T: Amount of [^3 H]Thymidine radioactivity incorporated into the LK6-A-treated mixed cell suspension
A: Amount of [^3 H]Thymidine radioactivity incorporated into only the B10.BR murine lymph node cells. […]

Data set [4] can be described thus: Solubility. It counts as physicochemical.
For data set [5], the system named is reverse transcriptase. The following applies: U.S. Pat. No. 4,959,370; J. Am. Chem. Soc., 112, 1 (1990); cited from earlier work.

With plakinidine B, the “cytotoxic activity against the L1210 cell” value in data set [1] was “cytotoxic activity”. In data set [2], the “activity against a parasite Nippostrongylus brasiliensis” value is recorded as “activity”.
In the case of `CO/C=C/C(=O)c1cc2c3c(c(N)cc(NC(C)=O)c3n1)N=C2` [LK6-A], the IC50 in data set [3] came to 9 nM. Moreover, the Solubility entry is “sparingly soluble” in data set [4] (chloroform); “Soluble” in data set [4] (dimethylsulfoxide (DMSO)); “insoluble” in data set [4] (hexane); “sparingly soluble” in data set [4] (methanol); “sparingly soluble” in data set [4] (water).
For plakinidine A, the “cytotoxic activity against the L1210 cell” value in data set [1] is reported as “cytotoxic activity”. For the same molecule, the “reverse transcriptase inhibitory activity” value in data set [5] was “reverse transcriptase inhibitory activity”. For the same molecule, in data set [2], the “activity against a parasite Nippostrongylus brasiliensis” value is “activity”.
With `CNc1c2ncc3c4ccccc4[nH]c(c4nccc(=O)c14)c23` [plakinidine C], the “cytotoxic activity against the L1210 cell” value in data set [1] is reported as “cytotoxic activity”.
